Results on one molecule are retold here after ChEMBL document CHEMBL4219265, “Piperlongumine derivative, CG-06, inhibits STAT3 activity by direct binding to STAT3 and regulating the reactive oxygen species in DU145 prostate carcinoma cells” (Bioorg Med Chem Lett, 2018).

The structures appear in SMILES notation.

The GI50 is the concentration at which growth is held to half of that of the control. As a reminder, the inhibition is the share of the control response that was lost under treatment. High values mean a response far below the control, low ones a response near the control.

The test system of data set [1] is DU-145. Description: Effect on total STAT3 protein level in human DU145 cells assessed as ratio of STAT3 protein level to GAPDH protein level at 5 uM after 0.5 hrs by Western blot analysis (reference value: 1). In kind it is ADME, cell-based. The note with it: du-145, 0.5 h. A general note: A western blot detects proteins with antibodies after separation by electrophoresis.

Data set [2] deals with DU-145. Description: Growth inhibition of human DU145 cells after 48 hrs by WST-1 assay. The data set is classed as functional. The note with it: DU-145, 48 h. (In general: Formazan colour is commonly taken as a measure of viable cells.)
The target in data set [3] is T1, Signal transducer and activator of transcription 3 (Homo sapiens, UniProt P40763). Description: Inhibition of STAT3 in human DU145 cells assessed as ratio of Bcl-xl protein level to tubulin protein level at 5 uM after 48 hrs by Western blot analysis (reference value: 1). The data set is classed as cell-based.
T1 sequence (P40763 whole entry): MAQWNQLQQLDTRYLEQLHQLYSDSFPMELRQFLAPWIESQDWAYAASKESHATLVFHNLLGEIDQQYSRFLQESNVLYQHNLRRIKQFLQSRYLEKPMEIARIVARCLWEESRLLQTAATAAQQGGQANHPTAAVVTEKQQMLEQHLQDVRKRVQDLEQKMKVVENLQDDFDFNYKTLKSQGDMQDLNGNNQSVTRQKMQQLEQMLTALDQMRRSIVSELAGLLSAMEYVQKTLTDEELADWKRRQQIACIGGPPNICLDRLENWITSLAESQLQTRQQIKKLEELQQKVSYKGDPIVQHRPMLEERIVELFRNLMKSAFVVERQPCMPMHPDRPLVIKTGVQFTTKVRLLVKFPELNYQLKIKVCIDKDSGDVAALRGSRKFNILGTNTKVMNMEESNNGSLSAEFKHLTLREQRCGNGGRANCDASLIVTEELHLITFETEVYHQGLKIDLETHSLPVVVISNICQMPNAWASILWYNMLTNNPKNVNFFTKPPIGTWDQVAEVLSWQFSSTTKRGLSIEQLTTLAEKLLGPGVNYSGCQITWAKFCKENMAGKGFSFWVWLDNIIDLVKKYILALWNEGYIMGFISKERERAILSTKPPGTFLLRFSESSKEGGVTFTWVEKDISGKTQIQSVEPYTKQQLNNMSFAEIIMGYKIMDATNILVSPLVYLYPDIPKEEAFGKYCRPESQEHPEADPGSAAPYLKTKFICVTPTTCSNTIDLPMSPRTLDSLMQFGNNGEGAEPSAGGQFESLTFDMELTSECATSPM
The test system of data set [4] is DU-145. As to the kind of experiment: Cell cycle arrest in human DU145 cells assessed as accumulation at G2/M phase at 5 uM after 48 hrs by flow cytometry (reference value: 18.12%). In kind it is functional.
For data set [5], the target named is T1, Signal transducer and activator of transcription 3. Description: Inhibition of STAT3 in human DU145 cells assessed as ratio of cyclin D1 protein level to tubulin protein level at 5 uM after 48 hrs by Western blot analysis (reference value: 1). The data set is classed as cell-based.
For data set [6], the system named is DU-145. Description: Effect on total ERK1/2 protein level in human DU145 cells assessed as ratio of ERK1/2 protein level to GAPDH protein level at 5 uM after 6 hrs by Western blot analysis (reference value: 1). In kind it is ADME, cell-based. The note with it: du-145, 6 h.
Data set [7] deals with T1, Signal transducer and activator of transcription 3. As to the kind of experiment: Inhibition of STAT3 phosphorylation at Tyr705 residues in human DU145 cells assessed as ratio of phosphorylated STAT3 protein level to GAPDH protein level at 5 uM after 12 hrs by Western blot analysis (reference value: 1). In kind it is cell-based.
Data set [8] deals with DU-145. As to the kind of experiment: Cell cycle arrest in human DU145 cells assessed as accumulation at S phase at 5 uM after 48 hrs by flow cytometry (reference value: 6.6%). In kind it is functional. (A flow cytometer gives signals particle by particle.)
The subject of data set [9] is DU-145. As to the kind of experiment: Effect on total STAT3 protein level in human DU145 cells assessed as ratio of STAT3 protein level to GAPDH protein level at 1 uM after 24 hrs by Western blot analysis (reference value: 1). The data set is classed as ADME, cell-based. The note with it: du-145, 24 h.
Data set [10] concerns DU-145. As to the kind of experiment: Induction of apoptosis in human DU145 cells at 5 uM after 48 hrs by flow cytometry (reference value: 0.61%). In kind it is functional.
Data set [11] deals with DU-145. As to the kind of experiment: Effect on total ERK1/2 protein level in human DU145 cells assessed as ratio of ERK1/2 protein level to GAPDH protein level at 5 uM after 12 hrs by Western blot analysis (reference value: 1). In kind it is ADME, cell-based. The note with it: du-145, 12 h.
In data set [12] the target is T1, Signal transducer and activator of transcription 3. Description: Binding affinity to STAT3 in human DU145 cell lysates assessed as reduction in pronase-induced STAT3 digestion by measuring ratio of STAT3 protein level to GAPDH protein level at 1 uM incubated for 1 hr in absence of pronase by Western blot analysis (reference value: 1).
Data set [13] has the same target. Description: Inhibition of STAT3 phosphorylation at Tyr705 residues in human DU145 cells assessed as ratio of phosphorylated STAT3 protein level to GAPDH protein level at 5 uM after 3 hrs by Western blot analysis (reference value: 1). The data set is classed as cell-based.
The target is the same in data set [14]. Description: Binding affinity to STAT3 in human DU145 cell lysates assessed as reduction in pronase-induced STAT3 digestion by measuring ratio of STAT3 protein level to GAPDH protein level at 50 uM incubated for 1 hr followed by 0.1% pronase addition for 10 mins by Western blot analysis (reference value: 0.2).
Data set [15] relates to DU-145. As to the kind of experiment: Effect on total ERK1/2 protein level in human DU145 cells assessed as ratio of ERK1/2 protein level to GAPDH protein level at 5 uM after 1 hr by Western blot analysis (reference value: 1). The data set is classed as ADME, cell-based. The note with it: du-145, 1 h.
Data set [16] has as its target T1, Signal transducer and activator of transcription 3. As to the kind of experiment: Inhibition of STAT3 phosphorylation at Tyr705 residues in human DU145 cells at 5 uM after 24 hrs by Western blot analysis. The data set is classed as cell-based.
For data set [17], the system named is DU-145. Description: Cell cycle arrest in human DU145 cells assessed as accumulation at S phase at 5 uM after 12 hrs by flow cytometry (reference value: 6.6%). The data set is classed as functional.
The test system of data set [18] is DU-145. As to the kind of experiment: Cell cycle arrest in human DU145 cells assessed as accumulation at G2/M phase at 5 uM after 24 hrs by flow cytometry (reference value: 18.12%). The data set is classed as functional.
In data set [19] the target is T1, Signal transducer and activator of transcription 3. Description: Binding affinity to STAT3 in human DU145 cell lysates assessed as reduction in pronase-induced STAT3 digestion by measuring ratio of STAT3 protein level to GAPDH protein level at 10 uM incubated for 1 hr followed by 0.05% pronase addition for 10 mins by Western blot analysis (reference value: 1).

As for `C=C(C)C(=O)N(Cc1ccc(Br)cc1)C(=O)/C=C/c1cc(OC)c(OC)c(OC)c1`, the Ratio was 1 in the data set with DU-145 [1]; 1 in data set [3]; 0.9 in data set [5]; 1 in the data set on DU-145 [6]; 0.2 in data set [7]; 1.1 with DU-145 [9]. Moreover, the Ratio in the data set on DU-145 [11] came to 0.9; in data set [12], 1; in data set [13], 0.2; in data set [14], 0.3; in the data set with DU-145 [15] it was 1.1; in data set [19], 2.1. In the data set on DU-145 [2], this molecule registered a GI50 of 900 nM. The Activity is reported as 18.95% in the data set with DU-145 [4]; 6.57% with DU-145 [8]; 7.61% in the data set with DU-145 [10]; 8.76% in the data set on DU-145 [17]; 22.2% with DU-145 [18]. Besides, in [16], the inhibition is more than 70%.
